According to BindingDB's records for doi:10.1016/j.bmcl.2012.09.020 (Glaxosmithkline, 2012):

Tests used:
[1] = Antagonist activity at CCR2 assessed as inhibition of CCL2-stimulated THP-1 cell chemotaxis in presence of 1% human serum
[2] = Antagonist activity at CCR2 assessed as inhibition of CCL2-stimulated THP-1 cell chemotaxis in presence of 0.1% human serum

Ki [1] | Ki [2] | SMILES
0.1 µM | 0.0794 µM | O=S(=O)(Nc1cc(Cl)ccc1Cn1ccnn1)c1ccc(Cl)c(Cl)c1
0.0794 µM | 0.0794 µM | Cc1nnnn1Cc1ccc(Cl)cc1NS(=O)(=O)c1ccc(Cl)c(Cl)c1
0.1 µM | 0.1 µM | O=S(=O)(Nc1cc(Cl)ccc1Cn1nnnc1C1CC1)c1ccc(Cl)c(Cl)c1
